pIC50: −log10 of the molar value.
Columns and labels:
[1] = target: T1, human p70S6 kinase (p70S6K, kinase domain residues 1-421, T412E mutation) (Homo sapiens, UniProt P23443, T412E); assay: p70S6 kinase assay, Luciferase-Coupled Chemiluminescent Kinase assay (LCCA); assay type: biochemical; details: 5 μM ATP, 12 nM p70S6K; read-out: p70S6K inhibition IC50
T1 construct: human p70S6 kinase domainresidues 1-421, containing a T412E mutation; made in house
Description: (§1) Kinase activity and compound inhibition are investigated using one or more of the three assay formats described below. The ATP concentrations for each assay are selected to be close to the Michaelis-Menten constant (KM) for each individual kinase. Dose-response experiments are performed at 10 different inhibitor concentrations in a 384-well plate format. The data are fitted to four-parameter equation (2) below; where Y is the observed signal, X is the inhibitor concentration, Min is the background signal in the absence of enzyme (0% enzyme activity), Max is the signal in the absence of inhibitor (100% enzyme activity), IC50 is the inhibitor concentration at 50% enzyme inhibition and H represents the empirical Hill's slope to measure the cooperativity. Typically H is close to unity. Y=Min+(Max−Min)/(1+(X/IC50)^H) Equation (2) p70S6 Kinase Assay
Biochemical activity of p70S6 kinase was assessed using a Luciferase-Coupled Chemiluminescent Kinase assay (LCCA) format. Kinase activity was measured as the percent ATP remaining following the kinase reaction. Remaining ATP was detected by luciferase-luciferin-coupled chemiluminescence. Specifically, the reaction was initiated by mixing test compounds, 5 μM ATP, 5 μM RRRLSSLRA peptide and 12 nM p70S6K (baculovirus expressed human p70S6 kinase domainresidues 1-421, containing a T412E mutation) in a 20 uL assay buffer (20 mM Tris-HCL pH 7.5, 10 mM MgCl2, 0.02% Triton X-100, 100 mM DTT, 2 mM MnCl2). The mixture is incubated at ambient temperature for 2 hours after which 20 μL luciferase-luciferin mix is added and the chemiluminescent signal read using a Wallac Victor^2 reader. The luciferase-luciferin mix consists of 50 mM HEPES, pH 7.8, 8.5 μg/mL oxalic acid (pH 7.8), 5 (or 50) mM DTT, 0.4% Triton X-100, 0.25 mg/mL coenzyme A, 63 uM AMP, 28 μg/mL luciferin and 40,000 units/mL luciferase.

[2] = target: T2, human Akt1 kinase (kinase domain residues R144-A480, activated with PDK1) (Homo sapiens, UniProt P31749); assay: Akt1 kinase assay, Luciferase-Coupled Chemiluminescent Kinase assay (LCCA); assay type: biochemical; details: 1 μM ATP, 1.3 nM Akt1; read-out: Akt-1 inhibition IC50
T2 construct: made in house
Description: as §1
Biochemical activity of Akt1 kinase was assessed using a Luciferase-Coupled Chemiluminescent Kinase assay (LCCA) format. Kinase activity was measured as the percent ATP remaining following the kinase reaction. Remaining ATP was detected by luciferase-luciferin-coupled chemiluminescence. Specifically, the reaction was initiated by mixing test compounds, 1 μM ATP, 5 μM crosstide peptide and 1.3 nM Akt1 (baculovirus expressed human Akt1 kinase domain residues R144-A480, activated with PDK1) in a 20 uL assay buffer (20 mM Tris-HCL pH 7.5, 10 mM MgCl2, 0.01% Triton X-100, 1 mM DTT, 3 mM MnCl2). The mixture is incubated at ambient temperature for 3 hours after which 20 μL luciferase-luciferin mix is added and the chemiluminescent signal read using a Wallac Victor2 reader. The luciferase-luciferin mix consists of 50 mM HEPES, pH 7.8, 8.5 μg/mL oxalic acid (pH 7.8), 5 (or 50) mM DTT, 0.4% Triton X-100, 0.25 mg/mL coenzyme A, 63 uM AMP, 28 μg/mL luciferin and 40,000 units/mL luciferase.

T2 sequence (P31749 144-480): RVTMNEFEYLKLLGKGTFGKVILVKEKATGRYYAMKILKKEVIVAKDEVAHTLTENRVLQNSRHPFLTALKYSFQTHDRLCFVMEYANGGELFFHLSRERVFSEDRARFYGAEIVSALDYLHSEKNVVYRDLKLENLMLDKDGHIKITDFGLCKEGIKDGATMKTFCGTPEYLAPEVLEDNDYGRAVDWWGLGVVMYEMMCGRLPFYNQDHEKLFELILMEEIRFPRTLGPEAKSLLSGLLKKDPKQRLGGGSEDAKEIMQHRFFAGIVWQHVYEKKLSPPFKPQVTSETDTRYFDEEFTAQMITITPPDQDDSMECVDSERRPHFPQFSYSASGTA
T1 sequence (P23443 1-421 T412E): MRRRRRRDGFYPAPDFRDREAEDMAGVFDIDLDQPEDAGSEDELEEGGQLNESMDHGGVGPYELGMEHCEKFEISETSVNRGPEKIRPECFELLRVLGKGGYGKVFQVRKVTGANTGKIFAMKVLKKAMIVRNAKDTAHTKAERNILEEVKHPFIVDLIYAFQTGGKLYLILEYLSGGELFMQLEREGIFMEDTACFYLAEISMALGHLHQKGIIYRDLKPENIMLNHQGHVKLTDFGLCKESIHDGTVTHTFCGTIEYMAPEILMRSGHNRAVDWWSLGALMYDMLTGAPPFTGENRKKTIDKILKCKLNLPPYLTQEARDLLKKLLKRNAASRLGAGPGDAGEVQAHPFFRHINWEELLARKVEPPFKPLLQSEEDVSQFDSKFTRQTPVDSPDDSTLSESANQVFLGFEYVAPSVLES

| SMILES | pIC50 [1] | pIC50 [2] |
| --- | --- | --- |
| CCN(CC)CCNC(c1ccc(Cl)cc1)C1CCN(c2ncnc3[nH]nc(Br)c23)CC1 (centres unmarked) [Entry 6, N′-[[1-(3-bromo-1H-pyrazolo[3,4-d]pyrimidin-4-yl)piperidin-4-yl](4-chlorophenyl)methyl]-N,N-diethylethane-1,2-diamine] | > 7.30 | > 7.30 |
| Brc1ccc(CN2CCN(c3ncnc4[nH]nc(Br)c34)CC2)cc1 [Entry 4, 3-bromo-4-{4-[(4-bromophenyl)methyl]piperazin-1-yl}-1H-pyrazolo[3,4-d]pyrimidine] | > 7.30 | 6.30 to 7.30 |
| O=C1CN(c2ncnc3[nH]nc(Br)c23)CCN1Cc1ccc(Cl)cc1 [Entry 8, 4-(3-bromo-1H-pyrazolo[3,4-d]pyrimidin-4-yl)-1-[(4-chlorophenyl)methyl]piperazin-2-one] | > 7.30 | 6.30 to 7.30 |
| OC(c1ccc(Cl)cc1)C1CCN(c2ncnc3[nH]nc(Br)c23)CC1 (centres unmarked) [Entry 1, [1-(3-bromo-1H-pyrazolo[3,4-d]pyrimidin-4-yl)piperidin-4-yl](4-chlorophenyl)methanol] | > 7.30 | > 7.30 |
| CN(C)CCNC(=O)C(c1ccc(Cl)cc1)N1CCN(c2ncnc3[nH]nc(Br)c23)CC1 (centres unmarked) [Entry 9, 2-[4-(3-bromo-1H-pyrazolo[3,4-d]pyrimidin-4-yl)piperazin-1-yl]-2-(4-chlorophenyl)-N-[2-(dimethylamino)ethyl]acetamide] | > 7.30 | > 7.30 |
| CCN(CC)CCN(c1ccc(Cl)cc1)C1CCN(c2ncnc3[nH]nc(Br)c23)CC1 [Entry 18, N-[1-(3-bromo-1H-pyrazolo[3,4-d]pyrimidin-4-yl)piperidin-4-yl]-N-(4-chlorophenyl)-N′,N′-diethylethane-1,2-diamine] | > 7.30 | > 7.30 |

Second part, the molecule after the results:

| pIC50 [1] | pIC50 [2] | SMILES |
| --- | --- | --- |
| 5.70 to 6.30 | < 5.70 | O=[N+]([O-])c1cc(CN2CCN(c3ncnc4[nH]nc(Br)c34)CC2)ccc1Oc1ccc(F)cc1 [Entry 65, 3-bromo-4-[4-({4-[(4-fluorophenyl)oxy]-3-nitrophenyl}methyl)piperazin-1-yl]-1H-pyrazolo[3,4-d]pyrimidine] |
| < 5.70 | < 5.70 | O=[N+]([O-])c1cc(CN2CCN(c3ncnc4[nH]nc(Br)c34)CC2)ccc1Oc1ccc(Cl)cc1 [Entry 84, 3-bromo-4-[4-({4-[(4-chlorophenyl)oxy]-3-nitrophenyl}methyl)piperazin-1-yl]-1H-pyrazolo[3,4-d]pyrimidine] |
| > 7.30 | < 5.70 | Clc1ccc(CC2CCN(c3ncnc4[nH]nc(Br)c34)CC2)cc1Cl [Entry 40, 3-bromo-4-{4-[(3,4-dichlorophenyl)methyl]piperidin-1-yl}-1H-pyrazolo[3,4-d]pyrimidine] |
| > 7.30 | > 7.30 | CCN(CC)CCC(=O)NC(c1ccc(Cl)cc1)C1CCN(c2ncnc3[nH]nc(Br)c23)CC1 (stereo not drawn) [Entry 26, N-[[1-(3-bromo-1H-pyrazolo[3,4-d]pyrimidin-4-yl)piperidin-4-yl](4-chlorophenyl)methyl]-N~3~,N~3~-diethyl-beta-alaninamide] |
| > 7.30 | 6.30 to 7.30 | Fc1cc(C(F)(F)F)ccc1CN1CCN(c2ncnc3[nH]nc(Br)c23)CC1 [Entry 23, 3-bromo-4-(4-{[2-fluoro-4-(trifluoromethyl)phenyl]methyl}piperazin-1-yl)-1H-pyrazolo[3,4-d]pyrimidine] |
| 6.30 to 7.30 | 5.70 to 6.30 | CN(Cc1ccccn1)C(c1ccc(F)cc1)C1CCN(c2ncnc3[nH]nc(Br)c23)CC1 (centres unmarked) [Entry 97, 1-[1-(3-bromo-1H-pyrazolo[3,4-d]pyrimidin-4-yl)piperidin-4-yl]-1-(4-fluorophenyl)-N-methyl-N-(pyridin-2-ylmethyl)methanamine] |
| > 7.30 | > 7.30 | CN(C)CCCC(O)(c1ccc(Cl)cc1)C1CCN(c2ncnc3[nH]nc(Br)c23)CC1 (centres unmarked) [Entry 91, 1-[1-(3-bromo-1H-pyrazolo[3,4-d]pyrimidin-4-yl)piperidin-4-yl]-1-(4-chlorophenyl)-4-(dimethylamino)butan-1-ol] |

From US7994172B2, “[1H-pyrazolo[3, 4-D]pyrimidin-4-yl]-piperidine or -piperazine compounds as serine-theoronine kinase modulators (P70s6k, Atk1 and Atk2) for the treatment of immunological, inflammatory and proliferative diseases” (Exelixis, Inc., priority 2004, dated 2011)
